In patent US20240173380A1, “CONNEXIN 43 FOR USE IN THE TREATMENT OF A CANCER TYPE CHARACTERIZED BY THE ACTIVATION OF A MITOGEN-ACTIVATED PROTEIN KINASE” (FUNDACIÓN PROFESOR NOVOA SANTOS, priority 2020, published 2024):
Where a name gives a salt, the structure may show the parent alone.

Assays:
Format in all cases: cell-based, human
[1] = test system: A375 melanoma cells (BRAF mutation); test: Cell proliferation and colony formation (xCELLigence, CCK-8, clonogenic assay)
Description: Dojindo's highly water-soluble tetrazolium salt (WST-8) is reduced by dehydrogenase activity in cells to give a yellow-color formazan dye, which is soluble in the tissue culture media. The amount of the formazan dye generated by dehydrogenases is directly proportional to the number of living cells. Equal number of cells (1000-2000 cells) were seeded per triplicate in 96-well plates and cultured in the different conditions. Medium was replaced by 100 μL of fresh medium and 10 μL of CCK-8 reagent was added per well. After an incubation for 1 to 4 h at 37° C., absorbance was measured at 450 nm in a NanoQuant microplate reader Infinite M200 (TECAN). Results were calculated as optical density (OD) 450 nm=OD of sample−OD of blank.
The E8 xCELLigence plates were prepared by addition of 100 μL of complete media to every well. After incubation at 37° C., plates were inserted into the xCELLigence station, and the base-line impedance was measured to ensure that all wells and connections were working. Following harvesting and counting, cells were diluted to the selected seeding density and 100 μl of cells in culture medium was added to each well. For the cell proliferation assays for each condition, 1×10^3-5×10^3 cells/well was seeded into 100 μL of media in the E-Plate L8 (Acea Biosciences). The attachment and proliferation of the cells were monitored every 30 min. Cell proliferation was monitored for 48-72 h. Cell Index at each time point is defined as (Rn−Rb)/15, where Rn is the cell-electrode impedance of the well when it contains cells and Rb is the background impedance of the well with the media alone. For the cell adhesion assays, for each condition, 1×10^3-5×10^3 cells/well was seeded into 100 μL of media in E-Plate L8 (Acea Biosciences). Cell proliferation was monitored for 1 h every 10 sec. The extend of cell adhesion and spreading was monitored every min for 1-3 h. Cell Index at each time point is defined as (Rn−Rb)/15, where Rn is the cell-electrode impedance of the well when it contains cells and Rb is the background impedance of the well with the media alone.
(§1) Colony formation assays were performed by seeding 5×10^3 to 5×10^4 cells per well onto 6-12 well plates and grown for 7-15 days. The culture medium was replaced every 48 h. The cells were washed with warm Saline Solution and fixed with cold 2% PFA for 15 min. Cells were washed with 1×PBS and stained with 0.1% of crystal violet (Sigma-Aldrich) for 15 min. After staining, the cells were washed with distilled water and dried at room temperature. The colonies were quantified by diluting crystal violet in 5% acetic acid and 100 μL of the solution was collected to measure the absorbance at 570 nm using a NanoQuant microplate reader Infinite M200 (TECAN).

A375 cell line = test: Gap junction intercellular communication: scrape loading and dye transfer; settings: A375 transfected with Cx43 vector vs empty vector (EV)
Description: Cells were seeded on 6 or 12 wells and cultured until 80-100% of confluence and rinsed twice with warm PBS. Lucifer Yellow CH dilithium salt (1 mg/mL) (LY: Cell Projects Ltd© Kent) in PBS was added to the cells and parallel cuts (3 cuts per well) were performed with a surgical blade (Swann-Mortonscalpel®). After 3-5 min at 37° C. cells were washed with PBS and fixed 2% PFA in PBS. LY becomes incorporated by cells along the cut and move from the dye-loaded cells into adjacent ones connected by functional gap junction channels. The areas for LY loading were randomly selected in the central part of wells to obtain the images for quantification. Images were captured with 10× objective using a Nikon Eclipse Ti fluorescent microscope. The constant exposures were used for all images for a given experiment. Ten images per sample were quantified. The score was calculated as the ratio of the number of non-damage LY positive cells at the edge and the number of the LY positive cells outside the edge.
Cells were seeded on 12-wells plated and cultured until 80-100% of confluence. […] The fluorescence emitted was measured at 640/40 nm and 540/40 nm with two photodetectors, the time course of the passage of dye from the injected cell to the adjacent cells was studied.

A375 tumour cell line = test: Cellular senescence: SA-β-Gal staining and flow cytometry
Description: The detection of SA-β-Gal activity was measured using the Senescence Cells Histochemical Staining Kit (Sigma-Aldrich). Cells were rinsed with warm PBS and fixed for 7 min at RT with a fixation buffer composed by 2% paraformaldehyde and 0.2% glutaraldehyde. After three washed with PBS, cells were incubated for 6 h or O/N at 37° C. without CO2 in a staining solution containing X-gal. This lactose analogue can be cleaved by β-galactosidase producing a blue insoluble product. Finally, cells were washed with PBS and images were taken using a light microscope.
SA-β-Gal activity was analyzed with the fluorogenic β-Galactosidase substrate di-β-D-galactopyranoside (FDG, Thermo Fisher Scientific), which is hydrolyzed by the endogenous β-galactosidase to fluorescein (FITC). Cells were harvested and incubated in a staining medium (PBS, 4% FBS, 10 mM HEPES, pH 7.2) at 37° C. for 10 min. The β-Galactosidase assay was started by adding warm 2 mM FDG to the cell suspension and after incubating for 3 min at 37° C. in the dark. The reaction was stopped with the addiction of ice-cold staining medium to the cells, which were kept on ice protected from light. […] was used for fluorescein and acquiring 20,000 event per triplicate. Data was analyzed using the FCS Express 6 Flow software.

[2] = test system: p53 and p16 in A375 cells; test: Western blot of senescence biomarkers p53 and p16; settings: Cx43 cells vs cells transfected with empty vector
Source text: (§2) The insoluble fraction was resuspended in lysis buffer (membrane).

A375 melanoma cells = test: Apoptosis assay, PI/YO-PRO-1 double staining, flow cytometry
Description: (§3) Supernatants (died cells) were aspirated and attached cells were harvested. Supernatants and cells were mixed, counted and 1 million cells were resuspended in 1 mL in flow cytometry (FC) buffer. Membrane viability analysis was performed by double staining PI/YO-PRO-1. YO-PRO-1 (Invitrogen) was added to the cells (150 nM) and incubated 10 min in the dark at 4° C. PI (Invitrogen) was added (2 μg/mL) and incubated for 5 min in the dark at 4° C. After the incubation time (PI/YO-PRO) samples were analyzed in a FACs Scalibur acquiring 20,000 event per triplicate. The red fluorescence emitted by PI was detected at 610 nm and the green florescence emitted by YO-PRO was detected at 515 nm. Data was analyzed using the FCS Express 6 Flow software.

[3] = test system: HT29 colorectal cancer cells (BRAF mutation); test: Colony formation assay; settings: HT29 transfected with Cx43 vector vs EV
Description: as §1

[4] = test system: MDA-MB-231 breast cancer cells (BRAF mutation); test: Colony formation assay; settings: MDA-MB-231 transfected with Cx43 vector vs EV
Description: as §1

[5] = test system: Sk-Mel-147 melanoma cells (NRAS mutation); test: Colony formation assay; settings: Sk-Mel-147 transfected with Cx43 vector
Description: as §1

[6] = test system: cleaved caspase 3 in A375 cells; test: Cleaved caspase 3 western blot
Source text: as §2

[7] = test system: A375 cells resistant to BRAF/MEKi (DR); test: Apoptosis assay (PI/YO-PRO-1) in double resistant cells; settings: DR A375 cells transfected with Cx43 vector
Description: The BRAF mutated tumour cell lines A375 (melanoma), SK-Mel-28 (melanoma), MDA-MB-231 (human breast cancer) and HT-29 (human colorectal adenocarcinoma) were also used to test the role of Cx43 in drug resistance. SK-Mel147 (melanoma), NRAS mutated cell line was selected to compare the results with BRAF mutant cell lines. Cells were cultured in Dulbecco's modified Eagle's medium (DMEM) (Lonza) supplemented with 10% fetal bovine serum (FBS) (Gibco, Thermo Fisher Scientific) and 100 U/mL penicillin and 100 μg/ml streptomycin (Gibco, Thermo Fisher Scientific). […] After adding DMEM supplemented with 10% FBS, cells were transferred to falcon tube and counted using the Neubauer chamber method in a light microscope. […]
as §3, with “Membrane viability analysis was performed by double staining PI/YO-PRO-1. YO-PRO-1 (Invitrogen) was added to the cells (150 nM) and incubated 10 min in the dark at 4° C. PI (Invitrogen) was added (2 μg/mL) and incubated for 5 min in the dark at 4° C.” left out

CC1(C)[C@@H](OC(=O)CCC(=O)O)CC[C@]2(C)[C@H]3C(=O)C=C4[C@@H]5C[C@@](C)(C(=O)O)CC[C@]5(C)CC[C@@]4(C)[C@]3(C)CC[C@@H]12 [CBX, Carbenoloxolone disodium salt, reference compound]
colony formation capacity ([1]; 100 μM CBX for 7 days, A375 EV and Cx43-overexpressing cells): No changes were detected in colony formation capacity

Cx43: channel protein Connexin 43, restored in tumour cells with a pIRESpuro2 plasmid containing the human Cx43 sequence
dye coupling (GJIC) (A375 cell line): increased levels of dye coupling compared with control EV
cell proliferation and colony formation capacity ([1]; A375-Cx43 after 1-2 weeks and 4 months under 1 nM T/100 nM D): significantly less cell proliferation and colony formation capacity
cells detected ([1]; A375-Cx43 after 2 weeks under 1 nM T/100 nM D): Almost no cells were detected
proliferation rate ([1]; A375 transfected with Cx43 vector vs empty vector, xCelligence, colony formation, CCK8): significant reduction in the proliferation rate
capacity to form colonies ([1]; A375 with Cx43 vector plus different concentrations of dabrafenib and trametinib for 7 days): significantly decreases the capacity to form colonies
cellular senescence (flow cytometry, β-Gal staining) (A375 tumour cell line; A375-Cx43 vs A375-EV under 100 nM dabra and 1 nM trame for 5 days): enhanced cellular senescence
cellular senescence (ß-Galactosidase activity) (A375 tumour cell line; Cx43 re-expression by vector in A375, no drug): increases cellular senescence
levels of senescent biomarkers p53 and p16 [2]: higher levels of the senescent biomarkers p53 and p16 than control cells
apoptosis (A375 melanoma cells; A375-Cx43 under BRAF/MEKi treatment (100 nM dabra, 1 nM trame, 5 days)): increases cellular senescence and apoptosis
basal percentage of early apoptotic cells (A375 melanoma cells; Cx43 overexpressing A375 vs empty vector): significantly higher
capacity to form colonies [3]: significantly decreases the capacity to form colonies
capacity to form colonies [4]: significantly decreases the capacity to form colonies
capacity to form colonies [5]: significantly decreases the capacity to form colonies
levels of cleaved caspase-3 ([6]; Cx43 overexpression in combination with BRAF/MEKi (1/100 nM T/D, 5 days)): showed the highest levels of cleavage caspase-3
levels of cleaved caspase-3 ([6]; Cx43 overexpression with BRAF/MEKi (T/D 4 days) followed by 24 h 3.5 μM NAV): showed the highest levels of cleavage caspase-3
MFI ratio of apoptotic cells [7]: increases the MFI ratio of apoptotic cells
